The values below come from PubChem BioAssay (NCI).

Each structure is given as a SMILES string.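 Method: 48-hour compound exposure of cells in 96-well plates, five concentrations, linear interpolation of endpoints. The concentration for 50% growth inhibition is given as GI50. TGI: total growth inhibition.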 A value given as a limit tells only on which side of the number the result lay.

Test systems include COLO 205 colon; RXF 393 renal; SK-MEL-28 melanoma; OVCAR-4 ovarian; SNB-19 CNS; SW-620 colon; CAKI-1 renal; HOP-62 NSCLC; MDA-MB-231 breast; RPMI-8226 leukemia.
Assay in all cases: NCI-60 cell line screen, 48 h

In the case of `CN(C)CCNC(=O)NC[C@H]1CC[C@@H]2[C@H](O1)c1cc(C(F)(F)F)ccc1N[C@H]2c1ccccc1`, the GI50 was 0.0476 µM in the experiment with COLO 205 colon; 0.249 µM with RXF 393 renal; 1.63 µM in the experiment on SK-MEL-28 melanoma; 3.03 µM in the experiment with OVCAR-4 ovarian; 0.624 µM with SNB-19 CNS; 0.0765 µM with SW-620 colon. Besides, the GI50 in the experiment with CAKI-1 renal is 4.74 µM; in the experiment with HOP-62 NSCLC, 1.71 µM; in the experiment on MDA-MB-231 breast it was 0.24 µM; with RPMI-8226 leukemia it was 0.163 µM. For the same compound, the TGI is 0.236 µM in the experiment with COLO 205 colon; 18.4 µM in the experiment on RXF 393 renal; 21.5 µM with SK-MEL-28 melanoma; 22.2 µM with OVCAR-4 ovarian; above 100 µM in the experiment on SNB-19 CNS; 17.1 µM in the experiment on SW-620 colon. The TGI in the experiment with CAKI-1 renal was above 68.2 µM; with HOP-62 NSCLC, 24.1 µM; with MDA-MB-231 breast it was 3.6 µM; in the experiment with RPMI-8226 leukemia it was 8.48 µM.

Regarding `COC1=CC(=O)c2nc(Cl)ccc2C1=O`, the GI50 in the experiment with COLO 205 colon was 2.31 µM; with RXF 393 renal, 1.58 µM; in the experiment on SK-MEL-28 melanoma, 1.88 µM; in the experiment with OVCAR-4 ovarian, 1.5 µM; with SNB-19 CNS, 13.7 µM; in the experiment on SW-620 colon it was 1.79 µM. The GI50 in the experiment on CAKI-1 renal is 1.91 µM; in the experiment with HOP-62 NSCLC, 1.94 µM; in the experiment on MDA-MB-231 breast, 1.84 µM; with RPMI-8226 leukemia it was 2.59 µM. The TGI is 4.98 µM in the experiment on COLO 205 colon; 2.97 µM with RXF 393 renal; 3.47 µM with SK-MEL-28 melanoma; 2.83 µM with OVCAR-4 ovarian; 28 µM in the experiment on SNB-19 CNS; 3.3 µM in the experiment with SW-620 colon. Also, the TGI with CAKI-1 renal amounted to 3.74 µM; in the experiment on HOP-62 NSCLC, 3.4 µM; with MDA-MB-231 breast, 6.44 µM; in the experiment with RPMI-8226 leukemia, 7.9 µM.

With `O=C(/C=C/OC(=O)c1cccc(Cl)c1)c1ccc(Cl)cc1`, the GI50 was above 65 µM in the experiment on COLO 205 colon; above 100 µM in the experiment on RXF 393 renal; 58.1 µM in the experiment with SK-MEL-28 melanoma; above 72.5 µM in the experiment with OVCAR-4 ovarian; above 56.5 µM in the experiment with SNB-19 CNS; 29.4 µM in the experiment on SW-620 colon. Further, the GI50 was above 51.5 µM in the experiment on CAKI-1 renal, above 100 µM in the experiment with HOP-62 NSCLC, 52.2 µM in the experiment with MDA-MB-231 breast and 30.5 µM with RPMI-8226 leukemia. The TGI is above 100 µM with COLO 205 colon; above 100 µM in the experiment with RXF 393 renal; above 100 µM in the experiment on SK-MEL-28 melanoma; above 100 µM in the experiment on OVCAR-4 ovarian; above 100 µM in the experiment with SNB-19 CNS; above 82 µM in the experiment with SW-620 colon. Also, the TGI in the experiment on CAKI-1 renal, with HOP-62 NSCLC, with MDA-MB-231 breast and in the experiment on RPMI-8226 leukemia was above 100 µM throughout.

For the compound `CN(C)CCOC(=O)Nc1nc2ccc(Sc3ccccc3)cc2[nH]1`, the GI50 in the experiment with COLO 205 colon was 2.16 µM; in the experiment with RXF 393 renal, 1.85 µM; in the experiment on SK-MEL-28 melanoma it was 9.19 µM; with OVCAR-4 ovarian, 6.3 µM; in the experiment with SNB-19 CNS it was 4.87 µM; in the experiment on SW-620 colon it was 3.69 µM. Further, the GI50 with CAKI-1 renal is 3.16 µM; in the experiment with HOP-62 NSCLC, 3.94 µM; with MDA-MB-231 breast it was 3.25 µM; with RPMI-8226 leukemia, 3.72 µM. The TGI was 5.19 µM in the experiment with COLO 205 colon; 6.6 µM in the experiment with RXF 393 renal; 24.3 µM with SK-MEL-28 melanoma; above 100 µM in the experiment with OVCAR-4 ovarian; 19.5 µM in the experiment with SNB-19 CNS; 16.3 µM in the experiment with SW-620 colon. Moreover, the TGI stood at 17.2 µM with CAKI-1 renal, 15.5 µM in the experiment with HOP-62 NSCLC, 12.3 µM with MDA-MB-231 breast and 17.9 µM in the experiment on RPMI-8226 leukemia.

On to `O=C(O[C@H]1CCN2C[C@H]3C[C@H](CN4C(=O)CCC[C@H]34)[C@@H]2C1)c1ccc(O)cc1`, for which the TGI in the experiment with COLO 205 colon, in the experiment on RXF 393 renal, with SK-MEL-28 melanoma, in the experiment on OVCAR-4 ovarian, in the experiment with SNB-19 CNS and in the experiment with SW-620 colon was above 100 µM in each case. Besides, the TGI in the experiment on CAKI-1 renal, with HOP-62 NSCLC, in the experiment with MDA-MB-231 breast and with RPMI-8226 leukemia was above 100 µM each time.

As for `COc1cc(/C=C/C(=O)c2c(C)nc3ccccc3c2C)ccc1OCCCN1CCN(C(=O)c2ccco2)CC1`, the GI50 in the experiment with COLO 205 colon is 11 µM; with RXF 393 renal it was 2.8 µM; with SK-MEL-28 melanoma it was 12.7 µM; in the experiment with OVCAR-4 ovarian it was 8.85 µM; with SNB-19 CNS, 11.9 µM; in the experiment on SW-620 colon, 6.03 µM. The GI50 was 1.86 µM in the experiment on CAKI-1 renal, 14.7 µM in the experiment with HOP-62 NSCLC, 7.22 µM in the experiment with MDA-MB-231 breast and 1.92 µM in the experiment on RPMI-8226 leukemia. Also, the TGI with COLO 205 colon was 23 µM; in the experiment on RXF 393 renal it was 10.2 µM; in the experiment on SK-MEL-28 melanoma, 25.3 µM; with OVCAR-4 ovarian it was above 100 µM; with SNB-19 CNS, 31.1 µM; in the experiment with SW-620 colon, 19.2 µM. In addition, the TGI in the experiment on CAKI-1 renal was 9.03 µM; with HOP-62 NSCLC, 30 µM; in the experiment on MDA-MB-231 breast it was 29.9 µM; in the experiment on RPMI-8226 leukemia it was 11.9 µM.

As to `O=c1c(Cl)cc2nc3ccccc3sc-2c1Cl`, the TGI worked out at 38 µM in the experiment with COLO 205 colon; 32.5 µM in the experiment on RXF 393 renal; 35.2 µM in the experiment with SK-MEL-28 melanoma; 27.4 µM with OVCAR-4 ovarian; 32.9 µM with SNB-19 CNS; 34.9 µM with SW-620 colon. The TGI in the experiment with CAKI-1 renal was found to be 37.8 µM; in the experiment on HOP-62 NSCLC it was 46.1 µM; with MDA-MB-231 breast, 21.3 µM; in the experiment on RPMI-8226 leukemia, 25.9 µM.
